# Entries after “also recorded” stand apart in the source; their conditions may differ. Where two headings read alike, the source gives them in different places.
# Columns and labels:
# [1] = target: T1, GAL4 DNA binding domain linked to the ligand binding domain of GR (Homo sapiens, UniProt P04150); test: Cellular transcriptional assay (HeLa, GAL4-GR LBD, luciferase); type: cell-based
# T1 construct: expressed in transfected cells; host or cells: HeLa (stably transfected)
# T1 sequence (P04150 524-758 limits assumed): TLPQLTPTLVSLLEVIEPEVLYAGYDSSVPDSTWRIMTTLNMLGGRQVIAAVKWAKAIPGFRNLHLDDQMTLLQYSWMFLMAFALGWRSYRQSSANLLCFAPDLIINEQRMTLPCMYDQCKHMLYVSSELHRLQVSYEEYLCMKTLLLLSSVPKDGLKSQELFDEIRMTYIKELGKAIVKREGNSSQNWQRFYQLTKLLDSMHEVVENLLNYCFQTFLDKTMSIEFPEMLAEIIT
# Procedure: In order to measure the ability of compounds to induce DNA binding and transcriptional activation in cells the following assay was performed. A HeLa cell line was stably transfected with a gene expressing a fusion protein consisting of the GAL4 DNA binding domain linked to the ligand binding domain of GR. Also transfected into these cells was a DNA binding site for GAL4 (5 repetitions of a 17-mer GAL4 binding site) linked to the beta-globin reporter in front of the luciferase gene. See Eisenmann, G., Cheynel, and Gronemeyer, H. (1995), Quand les cellules scintillent, Biofutur (Le Technoscope), 151: 8. […] After 20 hours the level of luciferase activity was measured using a Steady Glo Luciferase assay system (Promega Co., Madison, Wis.). […] EC50s were calculated by using standard curve fitting methods such as Excel Fit (Microsoft Co., Redmond, Wash.). An EC50 is the test molecule concentration required to cause a 50% stimulation of transcription.
# [2] = test system: tyrosine amino transferase mRNA; test: cells; conditions: read-out: EC50 for induction of tyrosine amino transferase mRNA
# Procedure: A second assay which measures the ability of compounds to induce the expression of tyrosine amino transferase mRNA in liver cells was also utilized to determine the ability of compounds to induce DNA binding. […] Test molecules were analyzed in the concentration range from 0.1 nM to 40 μM.
# [3] = test system: AP-1 induced transcriptional activity; test: Cellular transrepressional assay (AP-1 luciferase reporter, A549 cell, PMA); type: cell-based; conditions: for IC50: read-out: IC50 for transrepression
# Procedure: To measure the ability of test molecules to inhibit AP-1 induced transcriptional activity we utilized an A549 cell which was stably transfected with a plasmid containing 7×AP-1 DNA binding sites (pAP-1-Luc plasmid, Stratagene Co. La Jolla, Calif.) followed by the gene for luciferase. Cells were activated with 10 ng/ml of phorbol myristic acid (PMA) plus or minus test molecules for 7 hours. After 7 hours a luciferase reagent was added to measure luciferase enzymatic activity in the cell. After a 10 minute incubation of luciferase reagent with cells, luminescence was measured in a TopCount luminescence counter. Repression of AP-1 activity was calculated as the percentage decrease in the signal induced by PMA alone. […] IC50s were determined by using standard curve fitting methods such as Excel fit (Microsoft Co.). An IC50 is the test molecule concentration which causes a 50% repression of transcription, i.e. a 50% reduction of AP-1 activity.
# Site II on GR = target: T2, Site II on GR (Homo sapiens, UniProt P04150); test: Indirect Site II assay: modified FITC-dexamethasone FP assay with Compound D; type: binding
# T2 construct: recombinantly expressed human full-length glucocorticoid receptor; purchased Panvera Co., Madison, Wis
# T2 sequence (P04150 1-777): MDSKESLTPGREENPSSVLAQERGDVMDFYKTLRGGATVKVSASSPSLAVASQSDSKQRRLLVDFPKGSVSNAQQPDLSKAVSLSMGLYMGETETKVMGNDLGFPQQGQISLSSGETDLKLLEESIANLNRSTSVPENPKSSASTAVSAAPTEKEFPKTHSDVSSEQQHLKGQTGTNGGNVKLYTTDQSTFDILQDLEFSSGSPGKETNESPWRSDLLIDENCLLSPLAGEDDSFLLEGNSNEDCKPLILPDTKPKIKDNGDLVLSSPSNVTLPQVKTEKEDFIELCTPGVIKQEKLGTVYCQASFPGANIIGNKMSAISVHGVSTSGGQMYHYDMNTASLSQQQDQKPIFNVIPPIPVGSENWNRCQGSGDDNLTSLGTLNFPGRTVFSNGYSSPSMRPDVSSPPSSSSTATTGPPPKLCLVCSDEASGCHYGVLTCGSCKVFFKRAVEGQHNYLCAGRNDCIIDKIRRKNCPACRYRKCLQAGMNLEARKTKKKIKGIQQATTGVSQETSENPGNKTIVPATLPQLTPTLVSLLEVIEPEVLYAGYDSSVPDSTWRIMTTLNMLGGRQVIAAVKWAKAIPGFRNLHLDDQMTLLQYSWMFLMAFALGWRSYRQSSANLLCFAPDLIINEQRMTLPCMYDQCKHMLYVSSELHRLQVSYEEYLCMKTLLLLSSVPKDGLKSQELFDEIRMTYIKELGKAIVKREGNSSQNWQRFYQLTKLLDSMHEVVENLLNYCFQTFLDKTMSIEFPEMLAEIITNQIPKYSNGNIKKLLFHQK
# Procedure: In order to measure the binding of putative Site II compounds to GR we utilized the Glucocorticoid receptor competitor assay kit (Panvera Co., Madison, Wis.) in a modified version of the FITC-dexamethasone fluorescence polarization assay described in Example 2. In this assay, Compound D was added at a concentration of 200 nM, which yields approximately 50% inhibition of FITC-dexamethasone binding. Compound D (an R enantiomer) is Compound 50 of Example 1. Compound D is a ligand of Site II that inhibits via Site II FITC-dexamethasone binding to GR. […] These competitor Site II ligands, all compounds of Example 1 and all S enantiomers, were: Compound A; Compound C, which is the S enantiomer of Compound D; and Compound E, yet another S enantiomer of Example 1. If the competitor compound binds to Site II and displaces Compound D, then FITC-dexamethasone should rebind to GR. […] This assay can therefore measure the relative binding of compounds to the Site II on GR.
# [4] = target: T3, human full-length glucocorticoid receptor (Homo sapiens, UniProt P04150); test: GR Site I binding assay (FITC-dexamethasone fluorescence polarization, Panvera kit)
# T3 construct: recombinantly expressed human full-length glucocorticoid receptor; purchased Panvera Co., Madison, Wis
# T3 sequence (P04150 1-777): T2 sequence (P04150 1-777)
# Procedure: In order to measure the binding of compounds to Site I on the glucocorticoid receptor a commercially available kit was used (Glucocorticoid receptor competitor assay kit, Panvera Co., Madison, Wis.). Briefly, a cell lysate containing recombinantly expressed human full-length glucocorticoid receptor was mixed with a fluorescently labeled glucocorticoid (4 nM FITC-dexamethasone) plus or minus test molecule. After one hour at room temperature, the fluorescence polarization (FP) of the samples were measured.
Structure (SMILES),% stimulation ([1]; absence of Compound A) [%],% stimulation ([1]; presence of Compound A) [%],EC50 [2] [nM],"IC50 ([3]; Homo sapiens, A549, absence of Compound A) [nM]","IC50 ([3]; Homo sapiens, A549, presence of 800 nM Compound A) [nM]","inhibition at 0.8 µM ([3]; Homo sapiens, A549, presence of 800 nM Compound A, read-out: percent inhibition) [%]",maximum percent inhibition ([3]; absence of Compound A) [%],displacement of Compound D allowing FITC-dexamethasone to rebind to GR (Site II on GR; Compound D at 200 nM),inhibition of dexamethasone binding to GR by the compound on its own [4],"inhibition at 0.2 µM (Site II on GR; 200 nM, read-out: inhibition of FITC-dexamethasone binding) [%]"
C[C@@H]1C[C@H]2[C@@H]3CCC4=CC(=O)C=C[C@]4(C)[C@@]3(F)[C@@H](O)C[C@]2(C)[C@@]1(O)C(=O)CO [dexamethasone],100,47,~50,3.4,1.2,100,75,–,–,–
Cc1ccc(-c2csc(NC(=O)C3(C)CC4(C#N)c5ccccc5C3c3ccccc34)n2)c2ccccc12 (centres unmarked) [Compound C],–,–,–,–,–,–,–,effective at displacing Compound D,do not inhibit dexamethasone binding; also recorded: do not inhibit dexamethasone on their own,–
Cc1ccc(-c2csc(NC(=O)C3(C)CC4(C#N)c5ccccc5C3c3ccccc34)n2)c2ccccc12 (centres unmarked) [Compound D],–,–,–,–,–,–,–,–,does inhibit dexamethasone,~50

# — patent US7442554B2, “Compositions and methods involving glucocorticoid receptor site II” (Bristol-Myers Squibb Company, priority 2002, dated 2008)
